The conditions of data set [1]: cited from earlier work.
The subject of data set [2] is Male Wistar rats. Briefly: Object recognition task model (time induced memory deficit). The following applies: 1 mg/kg, p.o.; for Exploration time mean ± S.E.M, Familiar object / Exploration time mean ± S.E.M, Novel object: choice trial 24 hours after T1. The class given is in vivo, rat. The method, then: Object Recognition Task Model
(§1) The cognition enhancing properties of compounds of this invention were estimated by using this model.
(§2) Male Wistar rats (8-10 weeks old) were used as experimental animals. Four animals were housed in each cage. Animals were kept on 20% food deprivation from a day prior to experimentation. Water was provided ad libitum throughout the experiment. Animals were maintained on a 12 hours light/dark cycle in temperature and humidity controlled room. The experiment was carried out in an open field made up of acrylic. Rats were habituated to individual arenas (open field) for 1 hour in the absence of any objects on day 1.
One group of 12 rats received vehicle and another set of animals received test compounds or test compounds and Donepezil, before the familiar (T1) and choice (T2) trials. During the familiarization phase, (T1), the rats were placed individually in the arena for 3 minutes, in which two identical objects (a1 and a2) were positioned 10 cm from the wall. 24 hours after T1, trial for long-term memory test was performed. The same rats were placed in the same arena as they were placed in T1 trial. During the choice phase (T2) rats were allowed to explore the arena for 3 minutes in presence of a copy of familiar object (a3) and one novel object (b). During the T1 and T2 trial, explorations of each object (defined as sniffing, licking, chewing or having moving vibrissae whilst directing the nose towards the object at a distance of less than 1 cm) were recorded using stopwatch.
(§3) T1 is the total time spent exploring the familiar objects (a1+a2).
(§4) T2 is the total time spent exploring the familiar object and novel object (a3+b). Discriminative index=Time spent with novel object/(time spent with novel and familiar object).
The object recognition test was performed as described in Behavioural Brain Research, 1988, 31, 47-59.

Data set [3] is described as follows: Rodent pharmacokinetic study. The settings on record: male Wistar rats; for clearance / half-life / Vd / Cmax / Tmax / bioavailability: rat, plasma; for Vd: read-out: Vz; for bioavailability: 3 mg/kg oral vs 1 mg/kg i.v. Format: in vivo, rat. The method, then:
Rodent Pharmacokinetic Study
Male Wistar rats (260±50 grams) were used as experimental animals. Animals were housed individually in polypropylene cage. Two days prior to study, male Wistar rats were anesthetized with isoflurane for surgical placement of jugular vein catheter. Rats were randomly divided for oral (3 mg/kg) and intravenous (1 mg/kg) dosing (n=3/group) and fasted overnight before oral dosing (p.o.). However, rats allocated to intravenous (i.v.) dosing food and water was provided ad libitum.
At pre-determined point, blood was collected through jugular vein and replenished with an equivalent volume of normal saline. Collected blood was transferred into a labeled eppendorf tube containing 10 μL of heparin as an anticoagulant. Typically blood samples were collected at following time points: 0.08, 0.25, 0.5, 1, 2, 4, 6, 8, and 24 hours post dose. Blood was centrifuged at 4000 rpm for 10 minutes. Plasma was separated and stored frozen at −80° C. until analysis. The concentrations of the test compounds were quantified in plasma by qualified LC-MS/MS method using suitable extraction technique. The test compounds were quantified in the calibration range around 1-1000 ng/mL in plasma. Study samples were analyzed using calibration samples in the batch and quality control samples spread across the batch.
Pharmacokinetic parameters Cmax, Tmax, AUCt, T1/2, clearance, Vz and bioavailability were calculated by non-compartmental model using standard non-compartmental model by using Phoenix WinNonlin 6.0.2 or 6.0.3 version Software package.

The target in data set [4] is recombinant human Muscarinic M1 receptor (Homo sapiens (Human), UniProt P11229). Nature of the data set: Allosteric potency EC50, CHO cells with pCRE-Luc reporter, in presence of EC20 of acetylcholine. Format: cell-based. The settings on record: 4 hours. A digest of the protocol:
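Stable CHO cells carrying human M1 receptor and a pCRE-Luc reporter, serum-starved overnight, then exposed to rising compound concentrations plus EC20 acetylcholine in OptiMEM for 4 h at 37 °C. Luciferase read after lysis. EC50 is the concentration giving 50% luciferase stimulation with EC20 acetylcholine present.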

Data set [5] relates to Male Wistar rats. Nature of the data set: Object recognition task model - scopolamine challenge. Format: in vivo, rat. The settings on record: 0.3 mg/kg, p.o., with scopolamine. The method, then: Object Recognition Task Model—Scopolamine Challenge
as §1, §2
Rats received vehicle or vehicle and scopolamine or compound of the formula (I) and scopolamine, before the familiar (T1). During the familiarization phase, (T1), the rats were placed individually in the arena for 3 minutes, in which two identical objects (a1 and a2) were positioned 10 cm from the wall. 3 minutes after T1, trial for memory test was performed. The same rats were placed in the same arena as they were placed in T1 trial. During the choice phase (T2) rats were allowed to explore the arena for 3 minutes in presence of a copy of familiar object (a3) and one novel object (b). During the T1 and T2 trial, explorations of each object (defined as sniffing, licking, chewing or having moving vibrissae whilst directing the nose towards the object at a distance of less than 1 cm) were recorded using stopwatch.
as §3, §4

The nature of data set [6]: Rodent brain penetration study. The class given is in vivo. The following applies: rat, oral, 3 mg/kg, p.o., male Wistar rats, read-out: Single dose Rat Brain Penetration (Cb/Cp). The method, then: Rodent Brain Penetration Study
Male Wistar rats (260±40 grams) were used as experimental animals. Three animals were housed in each cage. Animals were given water and food ad libitum throughout the experiment and maintained on a 12 hours light/dark cycle.
Brain penetration was determined in discrete manner in rats. One day prior to dosing day, male Wistar rats were acclimatized and randomly grouped according to their weight. At each time point (0.50, 1 and 2 hours) n=3 animals were used.
The test compounds were suitably preformulated and administered orally at (free base equivalent) 3 mg/kg. Blood samples were removed via cardiac puncture by using isoflurane anesthesia. The animals were sacrificed to collect brain tissue. Plasma was separated and brain samples were homogenized and stored frozen at −20° C. until analysis. The concentrations of the test compounds in plasma and brain were determined using LC-MS/MS method.
The test compounds were quantified in plasma and brain homogenate by qualified LC-MS/MS method using suitable extraction technique. The test compounds were quantified in the calibration range of 1-500 ng/mL in plasma and brain homogenate. Study samples were analyzed using calibration samples in the batch and quality control samples spread across the batch. Extent of brain-plasma ratio was calculated (Cb/Cp).

The conditions of data set [7]: cited from earlier work. The source holds these as a separate data set.
The target in a further data set is M1 muscarinic receptor (Homo sapiens (Human), UniProt P11229). The settings on record: cited from earlier work.
[8] abbreviates: choice trial 3 minutes after T1.

The source of these data is patent US10308620B2, “Muscarinic M1 receptor positive allosteric modulators” (SUVEN LIFE SCIENCES LIMITED, priority 2015, dated 2019).

Like-named read-outs stand apart in the source and are kept apart here.

Sequence of recombinant human Muscarinic M1 receptor (P11229 whole entry): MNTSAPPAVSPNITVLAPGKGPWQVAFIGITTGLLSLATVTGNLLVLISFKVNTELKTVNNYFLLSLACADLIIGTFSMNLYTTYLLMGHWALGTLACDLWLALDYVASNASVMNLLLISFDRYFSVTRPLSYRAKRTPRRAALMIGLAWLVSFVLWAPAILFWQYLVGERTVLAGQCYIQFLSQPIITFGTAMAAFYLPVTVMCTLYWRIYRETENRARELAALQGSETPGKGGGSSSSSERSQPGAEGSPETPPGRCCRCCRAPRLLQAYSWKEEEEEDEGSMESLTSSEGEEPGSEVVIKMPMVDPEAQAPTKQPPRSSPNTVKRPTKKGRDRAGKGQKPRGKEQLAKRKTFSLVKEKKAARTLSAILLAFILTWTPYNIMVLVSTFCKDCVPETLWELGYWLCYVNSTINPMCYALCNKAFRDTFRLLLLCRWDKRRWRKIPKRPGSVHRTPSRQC

In the case of `CCCCCCOc1nsnc1C1=CCCN(C)C1` [Xanomeline], the effects on cognition result in data set [1] (clinical Alzheimer's disease trial) was “significant effects on cognition”. In addition, in data set [1] (clinical trials), the gastrointestinal side effects entry is “gastrointestinal side effects led to a high dropout rate”.

Turning to `O=C(N[C@H]1CCCC[C@@H]1O)C1=CN(Cc2ccccc2F)c2ccccc2O1` [Example 1, N-(cis-1S, 2S-2-Hydroxycyclohexyl)-4-(2-fluorobenzyl)-4H-benzo[1,4]oxazine-2-carboxamide], in the data set with Male Wistar rats [2], the Inference entry was “Active”; the “Exploration time mean ± S.E.M, Familiar object” value was 10.93 ± 1.98 s; the “Exploration time mean ± S.E.M, Novel object” value stood at 19.27 ± 2.94 s. In data set [3] (1 mg/kg i.v. (bolus)), this molecule came in with an AUC0-t of 834 ± 101 ng·h/mL. Moreover, in data set [3] (3 mg/kg oral (gavage)), the AUC0-t came to 989 ± 386 ng·h/mL, the peak level (Cmax) was 419 ± 162 ng/mL, the Tmax amounted to 0.5 h and the half-life is 2.3 ± 1.1 h. In data set [3] (iv, 1 mg/kg i.v. (bolus)), the clearance came out at 19 ± 2 mL/min/kg, the half-life is 2.3 ± 0.7 h and the Vd worked out at 4 ± 1.4 L/kg. The molecule also returned a bioavailability in data set [3] of 40 ± 15%. Further, the EC50 in data set [4] was 422 nM. Besides, in the data set on Male Wistar rats [5], the Inference entry was “Active”. In the data set with Male Wistar rats [5] (setting [8]), the “Exploration time mean ± S.E.M, Familiar object” value came to 11.57 ± 1.51 s and the “Exploration time mean ± S.E.M, Novel object” value worked out at 22.66 ± 2.90 s. In data set [6], the Kp stood at 1.18 ± 0.38.

For `COc1cccc(CN2C=C(C(=O)N[C@H]3CCCC[C@@H]3O)Oc3ccccc32)c1` [Example 9, N-(cis-1S, 2S-2-Hydroxycyclohexyl)-4-(3-methoxybenzyl)-4H-benzo[1,4]oxazine-2-carboxamide], in the data set on Male Wistar rats [2], the Inference entry is “Active”; the “Exploration time mean ± S.E.M, Familiar object” value came to 8.64 ± 0.82 s; the “Exploration time mean ± S.E.M, Novel object” value was determined as 18.55 ± 1.70 s. The AUC0-t in data set [3] (1 mg/kg i.v. (bolus)) is 711 ± 137 ng·h/mL. Further, in data set [3] (3 mg/kg oral (gavage)), the AUC0-t stood at 1180 ± 245 ng·h/mL, the Cmax came out at 320 ± 68 ng/mL, the time of peak concentration (Tmax) was found to be 1.33 ± 0.58 h and the half-life was 2.9 ± 1.3 h. In data set [3] (iv, 1 mg/kg i.v. (bolus)), the clearance was determined as 24 ± 4 mL/min/kg, the half-life was 4.2 ± 2.2 h and the Vd is 8.3 ± 4.1 L/kg. Further, the bioavailability in data set [3] was determined as 55 ± 11%. Also, the EC50 in data set [4] came to 699 nM. In addition, the Kp in data set [6] amounted to 0.65 ± 0.2.

In the case of `O=C(N[C@H]1CCCC[C@@H]1O)C1=CN(Cc2ccc(Cl)nc2)c2ccccc2O1` [Example 21, N-(cis-1S,2S-2-Hydroxycyclohexyl)-4-(2-chloropyridin-5-ylmethyl)-4H-benzo[1,4]oxazine-2-carboxamide], in the data set on Male Wistar rats [2], the Inference entry is on record as “Active”; the “Exploration time mean ± S.E.M, Familiar object” value was found to be 9.18 ± 1.63 s; the “Exploration time mean ± S.E.M, Novel object” value was 17.67 ± 2.89 s. The AUC0-t in data set [3] (1 mg/kg i.v. (bolus)) was 1490 ± 149 ng·h/mL. Moreover, in data set [3] (3 mg/kg oral (gavage)), the AUC0-t came to 4270 ± 800 ng·h/mL, the Cmax is 992 ± 150 ng/mL, the Tmax amounted to 0.67 ± 0.29 h and the half-life was 2.7 ± 0.3 h. Also, in data set [3] (iv, 1 mg/kg i.v. (bolus)), the clearance came out at 11 ± 1 mL/min/kg, the half-life was 1.7 ± 0.3 h and the Vd worked out at 1.5 ± 0.1 L/kg. In addition, the bioavailability in data set [3] worked out at 95 ± 18%. For the same molecule, the half-maximal effective concentration (EC50) in data set [4] turned out to be 369 nM. Further, in data set [6], the Kp is 0.25 ± 0.08.

As for `N#CC1(c2ccccn2)CCN(Cc2cc(C(=O)O)c(=O)n3ccccc23)CC1` [PQCA, 1-{[4-cyano-4-(pyridine-2-yl)piperidin-1-yl]methyl}-4-oxo-4H-quinolizine-3-carboxylic acid], in data set [7] (at doses equal to or less than a fivefold margin from the minimum effective dose), the gastrointestinal side effects entry was “no gastrointestinal side effects”. The “efficacy in preclinical models of cognition” value in data set [7] (in vivo) is “efficacious”. Also, the “selectivity for M1 over the other muscarinic receptor sub types” value on M1 muscarinic receptor is given as “highly selective”.

As for `COc1cc(CN2C=C(C(=O)N[C@H]3CCCC[C@@H]3O)Oc3ccccc32)ccn1` [Example 11, N-(cis-1S,2S-2-Hydroxycyclohexyl)-4-(2-methoxypyridin-4-ylmethyl)-4H-benzo[1,4]oxazine-2-carboxamide], in the data set with Male Wistar rats [2], the Inference entry is given as “Active”; the “Exploration time mean ± S.E.M, Familiar object” value amounted to 10.05 ± 1.66 s; the “Exploration time mean ± S.E.M, Novel object” value turned out to be 16.92 ± 1.86 s. The AUC0-t in data set [3] (1 mg/kg i.v. (bolus)) turned out to be 838 ± 163 ng·h/mL. In data set [3] (3 mg/kg oral (gavage)), the AUC0-t is 1500 ± 200 ng·h/mL, the Cmax came out at 392 ± 43 ng/mL, the Tmax was 1 h and the half-life is 1.8 ± 0.1 h. In data set [3] (iv, 1 mg/kg i.v. (bolus)), the clearance stood at 20 ± 4 mL/min/kg, the half-life is 1.9 ± 0.6 h and the Vd is 3.1 ± 0.3 L/kg. Moreover, the bioavailability in data set [3] turned out to be 60 ± 8%. Also, in data set [4], the EC50 turned out to be 498 nM. Further, the Kp in data set [6] came out at 1.44 ± 0.16.
